Experimental data taken from US7476680B2, “Substituted heterocyclic compounds for treating multidrug resistance” (H. Lee Moffitt Cancer Center & Research Institute, Inc., priority 2000, dated 2009).

Tests used:
MDR1-ATPase = target: T1, MDR1-ATPase (Homo sapiens, UniProt P08183); test: MDR1 ATPase assay (substrate potential for MDR1); format: biochemical; details: isolated Sf9 cell membranes; for Ki: half-maximum inhibition of MDR1-ATPase stimulated by 30-40 micromolar verapamil
T1 construct: made in house; host or cells: Sf9 insect cells (baculovirus); isolated membranes
Text: Method for Measuring Substrate Potential for MDR1 (MDR1 ATPase assay)
Recombinant baculovirus carrying the human MDR1 gene was generated and Sf9 cells infected with virus. The virus-infected cells were harvested and their membranes isolated. MDR1-ATPase activity of the isolated Sf9 cell membranes was estimated by measuring inorganic phosphate liberation as previously described (B. Sarkadi, J. Biol. Chem., 1992, 267:4854-4858). The differences between the ATPase activities measured in the absence and presence of 100 micromolar vanadate were determined as activity specific to MDR1. MDR modulator concentrations causing half-maximum activation (Ka) or half-maximum inhibition of the MDR1-ATPase stimulated by 30-40 micromolar verapamil (Ki) were determined.

NIH-MDR1-G185 cells = test: Fluorescent substrate accumulation assay (BODIPY-FL Taxol); format: cell-based; details: BODIPY-FL Taxol 500 nM, modulator 10 micromolar, 40 min at 37° C.; fluorescence with modulator / without modulator
Experimental: Fluorescent Substrate Accumulation Assay
NIH-MDR1-G185 cells (obtained from M. Gottesman, NIH) were harvested and resuspended in RPMI-1640 containing L-glutamine, 10% Cosmic Calf Serum and penicillin-streptomycin. Cell suspension aliquots of 175 microliters (1×10^5 cells) were added to individual wells of a 96 well microtiter plate and preincubated for 15 min at 37° C. with 20 microliters MDR modulator diluted in cell culture media to give a final concentration of 10 micromolar. Control wells received no modulating agent. BODIPY-FL Taxol (Molecular Probes, Eugene, Oreg.) was added to each well in 10 microliter aliquots to give a final concentration of 500 nM and cells were incubated for 40 min at 37° C. Cells were centrifuged at 100×g for 5 min at 4° C. and the cell pellet washed with 200 microliters cold PBS to remove fluorescent medium from wells. Cells were centrifuged once more, media removed, and cells resuspended in 200 microliters cold PBS. Fluorescence accumulation was measured in a fluorescence plate reader fitted with an excitation filter of 485 nm and an emission filter of 538 nm. BODIPY-FL taxol accumulation in the cells was calculated as follows: Accumulation Index=(fluorescence in NIH-MDR1-G185 cells in the presence of modulator)/(fluorescence in NIH-MDR1-G185 cells in absence of modulator)

[1] = concentration causing half-maximum activation of MDR1-ATPase

T1 sequence (P08183 whole entry): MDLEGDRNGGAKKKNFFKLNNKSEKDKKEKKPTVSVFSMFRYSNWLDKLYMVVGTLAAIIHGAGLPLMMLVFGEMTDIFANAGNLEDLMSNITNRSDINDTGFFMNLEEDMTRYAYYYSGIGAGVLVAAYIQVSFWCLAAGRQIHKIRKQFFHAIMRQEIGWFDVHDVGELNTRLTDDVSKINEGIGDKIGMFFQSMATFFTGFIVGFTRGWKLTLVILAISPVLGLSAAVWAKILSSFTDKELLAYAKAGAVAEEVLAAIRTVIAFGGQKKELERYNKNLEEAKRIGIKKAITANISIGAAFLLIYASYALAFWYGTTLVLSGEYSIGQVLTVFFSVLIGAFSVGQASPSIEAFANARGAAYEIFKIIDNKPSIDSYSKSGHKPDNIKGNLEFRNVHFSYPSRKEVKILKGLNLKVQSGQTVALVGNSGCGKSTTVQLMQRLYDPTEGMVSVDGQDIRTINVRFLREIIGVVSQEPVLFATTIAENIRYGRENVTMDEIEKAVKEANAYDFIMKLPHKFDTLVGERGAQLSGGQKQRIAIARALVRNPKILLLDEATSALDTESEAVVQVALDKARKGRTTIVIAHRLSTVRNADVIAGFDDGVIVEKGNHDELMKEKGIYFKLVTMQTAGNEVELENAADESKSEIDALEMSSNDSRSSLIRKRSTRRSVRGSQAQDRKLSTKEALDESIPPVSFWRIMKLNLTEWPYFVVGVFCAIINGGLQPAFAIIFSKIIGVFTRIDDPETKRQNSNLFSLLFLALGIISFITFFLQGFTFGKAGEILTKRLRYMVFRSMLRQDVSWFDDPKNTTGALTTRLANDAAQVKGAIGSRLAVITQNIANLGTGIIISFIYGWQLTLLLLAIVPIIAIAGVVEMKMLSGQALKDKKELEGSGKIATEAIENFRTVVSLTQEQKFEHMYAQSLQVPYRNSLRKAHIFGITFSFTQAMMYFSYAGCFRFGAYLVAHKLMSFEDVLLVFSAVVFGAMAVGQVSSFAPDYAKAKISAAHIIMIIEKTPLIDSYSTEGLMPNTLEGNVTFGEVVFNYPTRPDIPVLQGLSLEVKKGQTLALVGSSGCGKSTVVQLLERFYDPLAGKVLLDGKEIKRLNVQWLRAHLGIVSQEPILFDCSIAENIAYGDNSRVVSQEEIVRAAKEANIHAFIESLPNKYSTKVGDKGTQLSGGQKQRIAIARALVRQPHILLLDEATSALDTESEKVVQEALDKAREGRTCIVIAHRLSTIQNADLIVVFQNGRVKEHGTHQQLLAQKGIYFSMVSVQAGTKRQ

| Compound | Substrate Potential Ka(MDR1-ATPase) (MDR1-ATPase; [1]) | Ki (MDR1-ATPase) [nM] | EC50 (MDR1-ATPase; concentration causing half-maximum activation of MDR1-ATPase, read-out: Substrate Potential Ka(MDR1-ATPase)) [nM] | Accumulation Index (NIH-MDR1-G185 cells) |
| --- | --- | --- | --- | --- |
| COc1cc(C(=O)C(=O)N2CCCC(C(=O)NC(CCCc3ccccc3)CCCc3ccccc3)C2)cc(OC)c1OC (stereo not shown) [Example 26, 1-(3,4,5-trimethoxyglyoxyl)-piperidine-3-carboxylic acid [4-phenyl-1-(3-phenyl-propyl)-butyl]-amide] | no activation | 500 |  |  |
| O=C(C1CCN(C[C@@H](O)COc2cccc3ncccc23)CC1)N(Cc1ccccc1)Cc1ccccc1 [Example 36, (R)-1-[2-hydroxy-3-(quinolin-5-yloxy)-propyl]-piperidine-4-carboxylic acid dibenzyl amide] | no activation | 1000 |  |  |
| CC1(C(=O)NC(CCCc2ccccc2)CCCc2ccccc2)CCN(C[C@@H](O)COc2cccc3ncccc23)CC1 [Example 50, (R)-1-[2-hydroxy-3-(quinolin-5-yloxy)-propyl]-methylpiperidine-4-carboxylic acid [4-phenyl-1-(3-phenyl-propyl)-butyl]-amide] |  |  |  | 10 |
| (R)-1-[2-hydroxy-3-(quinolin-5-yloxy)-propyl]-piperidine-4-carboxylic acid [4-(3-pyridyl-1-(3-pyridyl-propyl)-butyl]-amide [Example 53] |  |  |  | 8 |

The next lines start with results.

| Substrate Potential Ka(MDR1-ATPase) (MDR1-ATPase; [1]) | Ki (MDR1-ATPase) [nM] | EC50 (MDR1-ATPase; concentration causing half-maximum activation of MDR1-ATPase, read-out: Substrate Potential Ka(MDR1-ATPase)) [nM] | Compound | Accumulation Index (NIH-MDR1-G185 cells) |
| --- | --- | --- | --- | --- |
| no activation | 20 |  | O=C(NCCCCc1ccccc1)[C@H]1CN(C[C@@H](O)COc2cccc3ncccc23)CC[C@H]1C(=O)NCCCCc1ccccc1 (stereo in doubt) [Example 11, cis-(R)-1-[2-hydroxy-3-(quinolin-5-yloxy)-propyl]-piperidine-3,4-dicarboxylic acid bis-[(4-phenyl-butyl)-amide]] |  |
|  | 10 | 5 | O=C(NC1CCN(C[C@H](O)COc2cccc3ncccc23)CC1)C(CCCc1ccccc1)CCCc1ccccc1 (stereo in doubt) [Example 25, 5-phenyl-2-(3-phenyl-propyl)-pentanoic acid {1-[2-hydroxy-3-(quinolin-5-yloxy)-propyl]-piperidin-4-yl}-amide] |  |
| no activation | 300 |  | O=C(NC(CCCc1ccccc1)CCCc1ccccc1)C1CCN(C[C@@H](O)COc2cccc3ncccc23)CC1 [Example 5, (R)-1-[2-hydroxy-3-(quinolin-5-yloxy)-propyl]-piperidine-4-carboxylic acid [4-phenyl-1-(3-phenyl-propyl)-butyl]-amide] |  |
| no activation | 300 |  | O=C(NC(CCCc1ccccc1)CCCc1ccccc1)C1CCCN(C[C@@H](O)COc2cccc3ncccc23)C1 (stereo partly shown) [Example 14] |  |
| weak activation | > 50000 |  | COc1cc(OC[C@H](O)CN2CCCC(C(=O)NC(CCCc3ccccc3)CCCc3ccccc3)C2)cc(OC)c1OC (stereo partly shown) [Example 15] |  |
